The source of these data is patent publication US20250101041A1, “POSITIVE ALLOSTERIC MODULATORS OF THE MUSCARINIC ACETYLCHOLINE RECEPTOR M4” (Vanderbilt University, priority 2022, published 2025).

The target of this assay is T1, human mAChR M4 (Homo sapiens, UniProt P08173).
T1 construct: expressed in transfected cells; host or cells: CHO-K1 (American Type Culture Collection), stably expressing hM4 and Gqi5
T1 sequence (P08173 1-479): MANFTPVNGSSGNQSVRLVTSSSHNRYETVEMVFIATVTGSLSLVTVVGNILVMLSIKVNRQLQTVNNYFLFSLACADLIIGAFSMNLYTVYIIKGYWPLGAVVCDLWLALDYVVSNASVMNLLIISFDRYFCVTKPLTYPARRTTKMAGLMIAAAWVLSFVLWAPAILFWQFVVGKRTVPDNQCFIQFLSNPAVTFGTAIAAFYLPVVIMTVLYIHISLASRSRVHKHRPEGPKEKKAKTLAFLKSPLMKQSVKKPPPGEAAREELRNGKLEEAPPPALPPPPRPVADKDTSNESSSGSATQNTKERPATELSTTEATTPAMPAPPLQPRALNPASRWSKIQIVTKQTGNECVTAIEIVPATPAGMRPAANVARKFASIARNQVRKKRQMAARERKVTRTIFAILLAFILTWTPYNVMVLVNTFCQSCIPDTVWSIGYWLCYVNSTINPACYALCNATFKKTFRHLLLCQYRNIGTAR
Description: mAChR M4 cell-based functional assay: calcium mobilization (Fluo-4, FDSS), potentiation of EC20 acetylcholine response in hM4-Gqi5 CHO-K1 cells. The conditions noted are these: human M4; for Emax at 30 µM: CHO-K1, % ACh maximum at 30 μM; for EC50: potentiation of EC20 acetylcholine response, calcium mobilization. Put shortly:
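Readout is the fluorescence-ratio rise at 1 Hz on FDSS, with PAM activity taken as concentration-dependent enhancement of the EC20 acetylcholine response, fitted four-parameter for EC50/Emax. hM4-Gqi5 CHO-K1 cells carried Fluo-4 AM dye; test compounds (11 points, 1:3) preceded EC20 acetylcholine additions at 144 s and 230 s.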
(A change in cytosolic calcium serves as a functional read-out for many receptors and channels.)

The Emax is the greatest response seen or fitted, relative to the assay's reference. The term EC50 denotes the midpoint of the concentration-response curve. Turning to `COCc1cc(=O)n2nc(N3CCc4ncc(-c5ccc(CO)s5)cc4C3)c(C)cc2n1` [Compound 1-369, 7-(3-(5-(hydroxymethyl)thiophen-2-yl)-7,8-dihydro-1,6-naphthyridin-6(5H)-yl)-2-(methoxymethyl)-8-methyl-4H-pyrimido[1,2-b] pyridazin-4-one], the maximal response (Emax) at 30 µM is 99% and the half-maximal effective concentration (EC50) is 46 nM.
The matching figures for `Cc1cc(-c2cnc3c(c2)CN(c2nn4c(=O)cc(C)nc4cc2C)CC3)ccn1` [Compound 1-239, 2,8-dimethyl-7-(3-(2-methylpyridin-4-yl)-7,8-dihydro-1,6-naphthyridin-6(5H)-yl)-4H-pyrimido[1,2-b] pyridazin-4-one]: 78% and 98 nM.
The matching figures for `Cc1c(N2CCc3ncc(N=S4(=O)CCCC4)cc3C2)nn2c(=O)ccnc2c1C` [Compound 2-147, 8,9-dimethyl-7-(3-((1-oxidotetrahydro-126-thiophen-1-ylidene)amino)-7,8-dihydro-1,6-naphthyridin-6(5H)-yl)-4H-pyrimido[1,2-b]pyridazin-4-one]: 100% and 1240 nM.
As for `Cc1cc2nccc(=O)n2nc1N1CCc2ncc(Nc3ccc(C4CC4)nc3)cc2C1` [Compound 2-125, 7-(3-((6-cyclopropylpyridin-3-yl)amino)-7,8-dihydro-1,6-naphthyridin-6(5H)-yl)-8-methyl-4H-pyrimido[1,2-b]pyridazin-4-one], the Emax at 30 µM was 58%.
As for `COCc1cc(=O)n2nc(N3CCc4ncc(-c5ccc(F)nc5)cc4C3)c(C)cc2n1` [Compound 1-322, 7-(3-(6-fluoropyridin-3-yl)-7,8-dihydro-1,6-naphthyridin-6(5H)-yl)-2-(methoxymethyl)-8-methyl-4H-pyrimido[1,2-b] pyridazin-4-one], the Emax at 30 µM is 82% and the EC50 came to 374 nM.
The matching figures for `Cc1cc2nccc(=O)n2nc1N1CCc2ncc(Nc3cc(Cl)cnc3F)cc2C1` [Compound 2-116, 7-(3-((5-chloro-2-fluoropyridin-3-yl)amino)-7,8-dihydro-1,6-naphthyridin-6(5H)-yl)-8-methyl-4H-pyrimido[1,2-b]pyridazin-4-one]: 92% and 52 nM.
Consider `Cc1cc(=O)n2nc(N3CCc4ncc(-c5cccnc5F)cc4C3)c(C)cc2n1` [Compound 1-69, 7-(3-(2-fluoropyridin-3-yl)-7,8-dihydro-1,6-naphthyridin-6(5H)-yl)-2,8-dimethyl-4H-pyrimido[1,2-b]pyridazin-4-one], for which the Emax at 30 µM stood at 87% and the EC50 turned out to be 769 nM.
Regarding `Cc1c(N2CCc3ncc(-c4ccc(Cl)nc4Cl)cc3C2)nn2c(=O)cc(C(F)F)nc2c1C` [Compound 1-174, 7-(3-(2,6-dichloropyridin-3-yl)-7,8-dihydro-1,6-naphthyridin-6(5H)-yl)-2-(difluoromethyl)-8,9-dimethyl-4H-pyrimido[1,2-b]pyridazin-4-one], the Emax at 30 µM was found to be 82% and the concentration giving a half-maximal response (EC50) amounted to 450 nM.
The matching figures for `COCc1cc(=O)n2nc(N3CCc4ncc(-c5cnn(C6CC6)c5)cc4C3)c(C)c(C)c2n1` [Compound 1-263, 7-(3-(1-cyclopropyl-1H-pyrazol-4-yl)-7,8-dihydro-1,6-naphthyridin-6(5H)-yl)-2-(methoxymethyl)-8,9-dimethyl-4H-pyrimido[1,2-b]pyridazin-4-one]: 86% and 96 nM.
Taken in the same sequence, the figures for `Cc1ccc(-c2cnc3c(c2)CN(c2nn4c(=O)cc(C)nc4c(C)c2C)CC3)cc1` [Compound 1-135, 2,8,9-trimethyl-7-(3-(p-tolyl)-7,8-dihydro-1,6-naphthyridin-6(5H)-yl)-4H-pyrimido[1,2-b]pyridazin-4-one] were 97% and 626 nM.
The matching figures for `Cc1cc2nccc(=O)n2nc1N1CCc2ncc(N3CCOC(Cc4ccccc4)C3)cc2C1` (stereo not shown) [Compound 2-99, 7-(3-(2-benzylmorpholino)-7,8-dihydro-1,6-naphthyridin-6(5H)-yl)-8-methyl-4H-pyrimido[1,2-b]pyridazin-4-one]: 66% and 416 nM.
On to `Cc1ncc(-c2cnc3c(c2)CN(c2nn4c(=O)ccnc4cc2C)CC3)o1` [Compound 1-397, 8-methyl-7-(3-(2-methyloxazol-5-yl)-7,8-dihydro-1,6-naphthyridin-6(5H)-yl)-4H-pyrimido[1,2-b]pyridazin-4-one], for which the Emax at 30 µM came out at 87% and the EC50 is 1080 nM.
For `Cc1cc2nccc(=O)n2nc1N1CCc2ncc(Nc3cccc(F)c3C)cc2C1` [Compound 2-94, 7-(3-((3-fluoro-2-methylphenyl)amino)-7,8-dihydro-1,6-naphthyridin-6(5H)-yl)-8-methyl-4H-pyrimido[1,2-b]pyridazin-4-one], the Emax at 30 µM turned out to be 84% and the EC50 came out at 78 nM.
Taken in the same sequence, the figures for `Cc1cc2nc(C(=O)NC3CN(CC(F)(F)F)C3)cc(=O)n2nc1N1CCc2ncc(C(F)(F)F)cc2C1` [Compound 1-55, 8-methyl-4-oxo-N-(1-(2,2,2-trifluoroethyl)azetidin-3-yl)-7-(3-(trifluoromethyl)-7,8-dihydro-1,6-naphthyridin-6(5H)-yl)-4H-pyrimido[1,2-b]pyridazine-2-carboxamide] were 94% and 481 nM.
For the compound `Cc1cc(=O)n2nc(N3CCc4ncc(N5C[C@@H](C)O[C@@H](C)C5)cc4C3)c(C)c(C)c2n1` [Compound 2-38, 7-(3-((2R,6S)-2,6-dimethylmorpholino)-7,8-dihydro-1,6-naphthyridin-6(5H)-yl)-2,8,9-trimethyl-4H-pyrimido[1,2-b]pyridazin-4-one], the Emax at 30 µM turned out to be 76% and the EC50 is 1300 nM.
In the case of `Cc1cc2nccc(=O)n2nc1N1CCc2ncc(N3CCOC(c4ccccc4)C3)cc2C1` (stereo in doubt) [Compound 2-73, (S)-8-methyl-7-(3-(2-phenylmorpholino)-7,8-dihydro-1,6-naphthyridin-6(5H)-yl)-4H-pyrimido[1,2-b]pyridazin-4-one], the Emax at 30 µM stood at 87%.
For `Cc1c(N2CCc3ncc(-c4ccc(N(C)C)nc4)cc3C2)nn2c(=O)ccnc2c1C` [Compound 1-89, 7-(3-(6-(dimethylamino)pyridin-3-yl)-7,8-dihydro-1,6-naphthyridin-6(5H)-yl)-8,9-dimethyl-4H-pyrimido[1,2-b]pyridazin-4-one], the Emax at 30 µM was determined as 70% and the EC50 came out at 231 nM.
As to `Cc1cc(-c2cnc3c(c2)CN(c2nn4c(=O)cc(C)nc4c(C)c2C)CC3)ccn1` [Compound 1-243, 2,8,9-trimethyl-7-(3-(2-methylpyridin-4-yl)-7,8-dihydro-1,6-naphthyridin-6(5H)-yl)-4H-pyrimido[1,2-b] pyridazin-4-one], the maximal effect (Emax) at 30 µM is 84% and the EC50 worked out at 124 nM.
On to `COc1ccc(-c2cnc3c(c2)CN(c2nn4c(=O)cc(C)nc4cc2C)CC3)cc1F` [Compound 1-216, 7-(3-(3-fluoro-4-methoxyphenyl)-7,8-dihydro-1,6-naphthyridin-6(5H)-yl)-2,8-dimethyl-4H-pyrimido[1,2-b]pyridazin-4-one], for which the Emax at 30 µM was 79% and the EC50 is 380 nM.
The matching figures for `Cc1ccc(-c2cnc3c(c2)CN(c2nn4c(=O)cc(C(F)F)nc4c(C)c2C)CC3)cc1` [Compound 1-169, 2-(difluoromethyl)-8,9-dimethyl-7-(3-(p-tolyl)-7,8-dihydro-1,6-naphthyridin-6(5H)-yl)-4H-pyrimido[1,2-b]pyridazin-4-one]: 89% and 883 nM.
The matching figures for `Cc1cc(=O)n2nc(N3CCc4ncc(-c5ccccc5F)cc4C3)c(C)c(C)c2n1` [Compound 1-251, 7-(3-(2-fluorophenyl)-7,8-dihydro-1,6-naphthyridin-6(5H)-yl)-2,8,9-trimethyl-4H-pyrimido[1,2-b]pyridazin-4-one]: 84% and 289 nM.
In the case of `Cc1cc2nccc(=O)n2nc1N1CCc2ncc(-c3ccccc3C3(C#N)CC3)cc2C1` [Compound 1-438, 1-(2-(6-(8-methyl-4-oxo-4H-pyrimido[1,2-b]pyridazin-7-yl)-5,6,7,8-tetrahydro-1,6-naphthyridin-3-yl)phenyl)cyclopropane-1-carbonitrile], the Emax at 30 µM came out at 45% and the EC50 turned out to be 3900 nM.
As to `Cc1c(N2CCc3ncc(N4CCC(F)(F)CC4)cc3C2)nn2c(=O)cc(C(F)F)nc2c1C` [Compound 2-48, 2-(difluoromethyl)-7-(3-(4,4-difluoropiperidin-1-yl)-7,8-dihydro-1,6-naphthyridin-6(5H)-yl)-8,9-dimethyl-4H-pyrimido[1,2-b]pyridazin-4-one], the Emax at 30 µM came out at 79% and the EC50 was determined as 334 nM.
For `COCc1cc(=O)n2nc(N3CCc4ncc(-c5cccc(F)c5)cc4C3)c(C)cc2n1` [Compound 1-358, 7-(3-(3-fluorophenyl)-7,8-dihydro-1,6-naphthyridin-6(5H)-yl)-2-(methoxymethyl)-8-methyl-4H-pyrimido[1,2-b] pyridazin-4-one], the Emax at 30 µM is 83% and the EC50 came out at 337 nM.
